Earlier results, collected in patent US20240400555A1 (Initial Therapeutics, Inc., priority 2023, published 2024).

Assays:
[1] = test system: NB4 cells and Nalm-6 cells; details: APL-derived NB4 cells and ALL-derived Nalm-6 cells; cited from earlier work
[2] = test system: human lung cancer cell lines (H23 and H292); details: cited from earlier work
murine models of MM = details: three murine models; cited from earlier work
tumor growth = details: mice; cited from earlier work
MM cell = details: in vitro; cited from earlier work
xenografts of human MM = details: in vivo; cited from earlier work

Question: With `CCc1ccc(/C=C2/SC(=S)NC2=O)cc1` [Compound 10058-F4] as the molecule, how does the “viability of leukemia cells” value [1] read?
Answer: reduced viability

Question: Which “cytotoxicity toward human lung cancer cell lines” value [2] does the source give for `CCc1ccc(O)c(CN(C)Cc2cc(CC)ccc2O)c1` [EMD, N, N-bis(5-ethyl-2-hydroxybenzyl) methylamine] here?
Answer: strong cytotoxicity

Question: Which “efficacy in murine models of MM” value (murine models of MM) does the source give for `Cc1sc2c(c1C)C(c1ccc(Cl)cc1)=N[C@@H](CC(=O)OC(C)(C)C)c1nnc(C)n1-2` [JQ1] here?
Answer: efficacious in three murine models of MM

Question: For `Cn1nc(C(F)(F)F)cc1-c1ccc(OCc2ccc(Cl)cc2)c(-c2cc(C(F)(F)F)cc(C(F)(F)F)c2)c1O` [MYCi361], which “in vivo tumor growth” value (tumor growth) is on record?
Answer: suppressed in vivo tumor growth in mice

Question: What does the source list for `O=C(c1cc(Cc2n[nH]c(=O)c3ccccc23)ccc1F)N1CCN(C(=O)C2CC2)CC1` [olaparib]?
Answer: MM cell viability (MM cell): impaired MM cell viability in vitro; efficacy against xenografts of human MM (xenografts of human MM): effective against in vivo xenografts of human MM
